From patent US12304899B2, “Factor XI activation inhibitors” (Merck Sharp & Dohme LLC, priority 2019, dated 2025)

Target: T1, Human coagulation factor (F)XI (Homo sapiens, UniProt P03951)
T1 construct: purchased Haematologic Technologies Inc. (FXI); Enzyme Research Laboratories (FXIIa) HCXI-150 (FXI); HFXIIa (FXIIa)
Assay: Inhibition of FXIIa mediated activation of FXI (activation of human Factor XI to XIa by human Factor α-XIIa)
Type: biochemical
Conditions: human FXI pre-incubated with compound 30 min at 22° C., activation by human FXIIa 60 min, z-GPR-AFC substrate fluorescence, 4 parameter logistic fit; read-out: Inhibition of FXIIa meditated activation of FXI
Summary of the method: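 Human FXI (46 nM stock) preincubated 30 min at 22 °C with compound (10-point, 3.333-fold dilutions), then activated by human α-FXIIa (30 nM stock) for 60 min in HEPES/NaCl/CaCl2/PEG buffer, pH 7.4. After quench with a selective FXIIa inhibitor, FXIa generation read by z-GPR-AFC cleavage (60 min, fluorescence 405/510 nm); EC50 from 4-parameter logistic fit.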

T1 sequence (P03951 19-625): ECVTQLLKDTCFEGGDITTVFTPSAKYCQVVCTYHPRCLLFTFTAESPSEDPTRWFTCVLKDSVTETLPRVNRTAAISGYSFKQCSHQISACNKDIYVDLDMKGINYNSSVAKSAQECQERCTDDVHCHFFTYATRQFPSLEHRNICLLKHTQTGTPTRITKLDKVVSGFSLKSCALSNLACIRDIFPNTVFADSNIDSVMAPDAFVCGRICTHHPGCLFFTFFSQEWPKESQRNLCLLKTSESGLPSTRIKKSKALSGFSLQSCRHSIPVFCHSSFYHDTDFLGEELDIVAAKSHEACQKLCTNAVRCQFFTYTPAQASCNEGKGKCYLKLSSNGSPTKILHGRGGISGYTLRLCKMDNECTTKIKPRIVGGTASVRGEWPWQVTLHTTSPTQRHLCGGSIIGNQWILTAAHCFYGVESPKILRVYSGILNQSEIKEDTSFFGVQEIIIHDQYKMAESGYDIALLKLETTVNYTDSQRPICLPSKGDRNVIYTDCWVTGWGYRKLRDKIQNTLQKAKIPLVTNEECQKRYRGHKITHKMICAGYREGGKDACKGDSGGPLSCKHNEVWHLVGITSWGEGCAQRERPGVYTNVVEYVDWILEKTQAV

SMILES | EC50 [nM]
N#CC1(c2ccccc2)CCN(C(=O)c2cc(C(=O)N3CCCCC3)c3cc(OCc4ccc([N+](=O)[O-])cc4)ccc3n2)CC1 [Example 37, 1-(6-((4-nitrobenzyl)oxy)-4-(piperidine-1-carbonyl)quin-oline-2-carbonyl)-4-phenyl-piperidine-4-carbonitrile] | 48.2
O=C(c1cc(C(=O)N2CCCCC2)c2cc(OCc3nc4ccccc4s3)ccc2n1)N1CCN(CC(F)(F)F)CC1 [Example 65, (6-(benzo[d]thiazol-2-yl-methoxy)-2-(4-(2,2,2-trifluoroethyl)piperazine-1-carbonyl)quinolin-4-yl)-(piperidin-1-yl)methanone] | 19.1
CN(C(=O)c1cc(C(=O)N2CCC(n3cccn3)CC2)nc2ccc(OCc3nc4ccccc4s3)cc12)C1CC1 [Example 54, 2-(4-(1H-pyrazol-1-yl)piperi-dine-1-carbonyl)-6-(benzo[d]-thiazol-2-ylmethoxy)-N-cyclo-propyl-N-methylquinoline-4-carboxamide] | 71.5
